Earlier results in patent US20100249031A1, “Nutritional Composition Comprising Curcuminoids and Methods of Manufacture” (priority 2009, published 2010).

Experiments:
[1] = percentage of ingested curcuminoid metabolized by the body
Microtubule Assembly = details: @ 40 μM

Row | Metabolic Recovery [1] [%] | SMILES | Inhibition of Microtubule Assembly (Microtubule Assembly) [% @]
1 | ~50 | COc1cc(/C=C/C(O)=C/C(=O)/C=C/c2ccc(O)cc2)ccc1O [DMC, demethoxycurcumin] | –
2 | ~75 | O=C(/C=C/c1ccc(O)cc1)CC(=O)/C=C/c1ccc(O)cc1 [BDMC, bisdemethoxycurcumin] | –
3 | – | COc1cc(/C=C/C(=O)CC(=O)/C=C/c2ccc(O)c(OC)c2)ccc1O [Curcumin, curcumin] | 50
